Data from publication PMC9512702 (Nature Chemical Biology, 2022).
Converted amounts (≈) assume the structure as drawn. Where a SMILES comes first, the peptide text is derived from it. [ ]: non-standard residue; d: D form. Phe(3,4-F2) = N[C@@H](Cc1ccc(F)c(F)c1)C(=O)O; Cha = N[C@@H](CC1CCCCC1)C(=O)O; Aib = CC(C)(N)C(=O)O

What was measured:
[1] = molecular target: SARS-CoV-2 RBD binding to immobilized ACE2 (Severe acute respiratory syndrome coronavirus 2, UniProt P0DTC2); experiment: biochemical
[2] = Solubility measurement (peptide concentration in saturated solution); conditions: sodium-phosphate buffer, pH 7.4, aqueous buffer, thermodynamic from solid
Method: Approximately 2 mg of each peptide was added to 500 µl of buffer in 1.5-ml Eppendorf tubes. The tubes were shaken at 25 °C for 2 h on a 900 r.p.m. vortex shaker. The samples were centrifuged at 12,000 r.p.m. for 15 min to remove the precipitate and the supernatant was analyzed by ultraviolet–visible light (UV–vis) spectrometry.

[3] = molecular target: SARS-CoV-2 RBD (Severe acute respiratory syndrome coronavirus 2, UniProt P0DTC2); experiment: biochemical; type: binding; conditions: for Kd: KD (direct binding to RBD); for kon: read-out: ka

Row | SMILES | IC50 [1] [nM] | solubility thermodynamic at 2 h [2] [µM] | Kd [3] [nM] | kon [3] [M⁻¹ s⁻¹]
1 | CC[C@H](C)[C@H](NC(=O)[C@H](CC(C)C)NC(=O)[C@H](CC(=O)O)NC(=O)[C@H](CO)NC(=O)[C@@H](NC(=O)[C@H](CCCNC(=N)N)NC(=O)[C@H](CCSC)NC(=O)[C@H](CO)NC(=O)[C@H](C)NC(=O)[C@H](CCC(=O)O)NC(=O)[C@H](C)NC(=O)[C@H](Cc1c[nH]cn1)NC(=O)CNC(=O)[C@H](CC(C)C)NC(=O)[C@H](CCC(=O)O)NC(=O)[C@H](CC(=O)O)NC(=O)[C@H](CC(C)C)NC(=O)[C@H](CC(C)C)NC(=O)[C@H](CCCNC(=N)N)NC(=O)[C@H](CCSC)NC(=O)[C@@H](NC(=O)[C@H](CCC(=O)O)NC(=O)[C@H](Cc1ccc(O)cc1)NC(=O)[C@@H](NC(=O)[C@H](CCCCN)NC(=O)[C@H](CCC(N)=O)NC(=O)[C@H](CC(C)C)NC(=O)[C@@H](NC(=O)[C@H](Cc1c[nH]c2ccccc12)NC(=O)[C@H](CCC(=O)O)NC(=O)[C@H](CCCCN)NC(=O)[C@@H](N)CC(=O)O)[C@@H](C)CC)[C@@H](C)CC)[C@@H](C)CC)C(C)C)C(=O)N[C@@H](Cc1ccc(O)cc1)C(=O)N[C@@H](CCC(=O)O)C(=O)N[C@@H](Cc1ccccc1)C(=O)N[C@@H](CCSC)C(=O)N[C@@H](CCCCN)C(=O)N[C@@H](CCCCN)C(N)=O [SIH-1] | 2500 to 5000 | 17 (≈ 78.9 µg/mL) | – | –
2 | CC[C@H](C)[C@H](NC(=O)[C@H](CC(C)C)NC(=O)[C@H](CC(=O)O)NC(=O)[C@H](CO)NC(=O)[C@@H](NC(=O)[C@H](CCCNC(=N)N)NC(=O)[C@H](CCSC)NC(=O)[C@H](CO)NC(=O)[C@H](C)NC(=O)[C@H](CCC(=O)O)NC(=O)C(C)(C)NC(=O)[C@H](Cc1c[nH]cn1)NC(=O)CNC(=O)[C@H](CC(C)C)NC(=O)[C@H](CCC(=O)O)NC(=O)[C@H](CC(=O)O)NC(=O)[C@H](CC(C)C)NC(=O)[C@H](CC(C)C)NC(=O)[C@H](CCCNC(=N)N)NC(=O)[C@H](CCSC)NC(=O)[C@@H](NC(=O)[C@H](CCC(=O)O)NC(=O)[C@H](Cc1ccc(O)cc1)NC(=O)[C@@H](NC(=O)[C@H](CCCCN)NC(=O)[C@H](CCC(N)=O)NC(=O)[C@H](CC(C)C)NC(=O)[C@@H](NC(=O)[C@H](Cc1c[nH]c2ccccc12)NC(=O)[C@H](CCC(=O)O)NC(=O)[C@H](CCCCN)NC(=O)[C@@H](N)CC(=O)O)[C@@H](C)CC)[C@@H](C)CC)[C@@H](C)CC)C(C)C)C(=O)N[C@@H](Cc1ccc(O)cc1)C(=O)N[C@@H](CCC(=O)O)C(=O)N[C@@H](Cc1ccccc1)C(=O)N[C@@H](CCSC)C(=O)N[C@@H](CCCCN)C(=O)N[C@@H](CCCCN)C(N)=O [SIH-2] (H-DKEWILQKIYEIMRLLDELGH[Aib]EASMRVSDLIYEFMKK-NH2) | 1250 to 2500 | 32 (≈ 149 µg/mL) | – | –
3 | CC[C@H](C)[C@H](NC(=O)[C@H](CC(C)C)NC(=O)[C@H](CC(=O)O)NC(=O)[C@H](CO)NC(=O)[C@@H](NC(=O)[C@H](CCCNC(=N)N)NC(=O)[C@H](CCSC)NC(=O)[C@H](CO)NC(=O)[C@H](C)NC(=O)[C@H](CCC(=O)O)NC(=O)C(C)(C)NC(=O)[C@H](Cc1c[nH]cn1)NC(=O)[C@@H](C)NC(=O)[C@H](CC(C)C)NC(=O)[C@H](CCC(=O)O)NC(=O)[C@H](CC(=O)O)NC(=O)[C@H](CC(C)C)NC(=O)[C@H](CC(C)C)NC(=O)[C@H](CCCNC(=N)N)NC(=O)[C@H](CCSC)NC(=O)[C@@H](NC(=O)[C@H](CCC(=O)O)NC(=O)[C@H](Cc1ccc(O)cc1)NC(=O)[C@@H](NC(=O)[C@H](CCCCN)NC(=O)[C@H](CCC(N)=O)NC(=O)[C@H](CC(C)C)NC(=O)[C@@H](NC(=O)[C@H](Cc1c[nH]c2ccccc12)NC(=O)[C@H](CCC(=O)O)NC(=O)[C@H](CCCCN)NC(=O)[C@@H](N)CC(=O)O)[C@@H](C)CC)[C@@H](C)CC)[C@@H](C)CC)C(C)C)C(=O)N[C@@H](Cc1ccc(O)cc1)C(=O)N[C@@H](CCC(=O)O)C(=O)N[C@@H](Cc1ccccc1)C(=O)N[C@@H](CCSC)C(=O)N[C@@H](CCCCN)C(=O)N[C@@H](CCCCN)C(N)=O [SIH-3] (H-DKEWILQKIYEIMRLLDEL[dA]H[Aib]EASMRVSDLIYEFMKK-NH2) | 125 to 250 | 95 (≈ 444 µg/mL) | – | –
4 | CC[C@H](C)[C@H](NC(=O)[C@H](CC(C)C)NC(=O)[C@H](CC(=O)O)NC(=O)[C@H](CO)NC(=O)[C@@H](NC(=O)[C@H](CCCNC(=N)N)NC(=O)[C@H](CCSC)NC(=O)[C@H](CO)NC(=O)[C@H](C)NC(=O)[C@H](CCC(=O)O)NC(=O)C(C)(C)NC(=O)[C@H](CC(=O)O)NC(=O)[C@@H](C)NC(=O)[C@H](CC(C)C)NC(=O)[C@H](CCC(=O)O)NC(=O)[C@H](CC(=O)O)NC(=O)[C@H](CC(C)C)NC(=O)[C@H](CC(C)C)NC(=O)[C@H](CCCNC(=N)N)NC(=O)[C@H](CCSC)NC(=O)[C@@H](NC(=O)[C@H](CCC(=O)O)NC(=O)[C@H](Cc1ccc(F)c(F)c1)NC(=O)[C@@H](NC(=O)[C@H](CCCCN)NC(=O)[C@H](CCC(N)=O)NC(=O)[C@H](CC(C)C)NC(=O)[C@@H](NC(=O)[C@H](Cc1c[nH]c2ccccc12)NC(=O)[C@H](CCC(=O)O)NC(=O)[C@H](CCCCN)NC(=O)[C@@H](N)CC(=O)O)[C@@H](C)CC)[C@@H](C)CC)[C@@H](C)CC)C(C)C)C(=O)N[C@@H](Cc1ccc(O)cc1)C(=O)N[C@@H](CCC(=O)O)C(=O)N[C@@H](Cc1ccccc1)C(=O)N[C@@H](CCSC)C(=O)N[C@@H](CCCCN)C(=O)N[C@@H](CCCCN)C(N)=O [SIH-7] (H-DKEWILQKI[Phe(3,4-F2)]EIMRLLDEL[dA]D[Aib]EASMRVSDLIYEFMKK-NH2) | 125 to 250 | – | 2.9 | –
5 | CC[C@H](C)[C@H](NC(=O)[C@H](CC(C)C)NC(=O)[C@H](CC(=O)O)NC(=O)[C@H](CO)NC(=O)[C@@H](NC(=O)[C@H](CCCNC(=N)N)NC(=O)[C@H](CCSC)NC(=O)[C@H](CO)NC(=O)[C@H](C)NC(=O)[C@H](CCC(=O)O)NC(=O)C(C)(C)NC(=O)[C@H](CC(=O)O)NC(=O)[C@@H](C)NC(=O)[C@H](CC(C)C)NC(=O)[C@H](CCC(=O)O)NC(=O)[C@H](CC(=O)O)NC(=O)[C@H](CC(C)C)NC(=O)[C@H](CC(C)C)NC(=O)[C@H](CCCNC(=N)N)NC(=O)[C@H](CCSC)NC(=O)[C@@H](NC(=O)[C@H](CCC(=O)O)NC(=O)[C@H](Cc1ccc(F)c(F)c1)NC(=O)[C@@H](NC(=O)[C@H](CCCCN)NC(=O)[C@H](CCC(N)=O)NC(=O)[C@H](CC(C)C)NC(=O)[C@@H](NC(=O)[C@H](Cc1c[nH]c2ccccc12)NC(=O)[C@H](CCC(=O)O)NC(=O)[C@H](CCCCN)NC(=O)[C@@H](N)CC(=O)O)[C@@H](C)CC)[C@@H](C)CC)[C@@H](C)CC)C(C)C)C(=O)N[C@@H](Cc1ccc(O)cc1)C(=O)N[C@@H](CCC(=O)O)C(=O)N[C@@H](CC1CCCCC1)C(=O)N[C@@H](CCSC)C(=O)N[C@@H](CCCCN)C(=O)N[C@@H](CCCCN)C(N)=O [SIH-13] (H-DKEWILQKI[Phe(3,4-F2)]EIMRLLDEL[dA]D[Aib]EASMRVSDLIYE[Cha]MKK-NH2) | 125 to 250 | – | 1.6 | –
6 | CC[C@H](C)[C@H](NC(=O)[C@H](C)NC(=O)[C@H](CC(=O)O)NC(=O)[C@H](CO)NC(=O)[C@@H](NC(=O)[C@H](CCCNC(=N)N)NC(=O)[C@H](CCSC)NC(=O)[C@H](CO)NC(=O)[C@H](C)NC(=O)[C@H](CCC(=O)O)NC(=O)C(C)(C)NC(=O)[C@H](CC(=O)O)NC(=O)[C@@H](C)NC(=O)[C@H](CC(C)C)NC(=O)[C@H](CCC(=O)O)NC(=O)[C@H](CC(=O)O)NC(=O)[C@H](CC(C)C)NC(=O)[C@H](CC(C)C)NC(=O)[C@H](CCCNC(=N)N)NC(=O)[C@H](CCSC)NC(=O)[C@H](C)NC(=O)[C@H](CCC(=O)O)NC(=O)[C@H](Cc1ccc(O)cc1)NC(=O)[C@@H](NC(=O)[C@H](CCCCN)NC(=O)[C@H](CCC(N)=O)NC(=O)[C@H](CC(C)C)NC(=O)[C@@H](NC(=O)[C@H](Cc1c[nH]c2ccccc12)NC(=O)[C@H](CCC(=O)O)NC(=O)[C@H](CCCCN)NC(=O)[C@@H](N)CC(=O)O)[C@@H](C)CC)[C@@H](C)CC)C(C)C)C(=O)N[C@@H](Cc1ccc(O)cc1)C(=O)N[C@@H](CCC(=O)O)C(=O)N[C@@H](Cc1ccccc1)C(=O)N[C@@H](CCSC)C(=O)N[C@@H](CCCCN)C(=O)N[C@@H](CCCCN)C(N)=O [SIH-14] (H-DKEWILQKIYEAMRLLDEL[dA]D[Aib]EASMRVSDAIYEFMKK-NH2) | 250 to 500 | – | 3 | 90000
7 | CC[C@H](C)[C@H](NC(=O)[C@H](CCC(=O)O)NC(=O)[C@H](CC(=O)O)NC(=O)[C@H](CO)NC(=O)[C@@H](NC(=O)[C@H](CCCNC(=N)N)NC(=O)[C@H](CCSC)NC(=O)[C@H](CO)NC(=O)[C@H](C)NC(=O)[C@H](CCC(=O)O)NC(=O)C(C)(C)NC(=O)[C@H](CC(=O)O)NC(=O)[C@@H](C)NC(=O)[C@H](CC(C)C)NC(=O)[C@H](CCC(=O)O)NC(=O)[C@H](CC(=O)O)NC(=O)[C@H](CC(C)C)NC(=O)[C@H](CC(C)C)NC(=O)[C@H](CCCNC(=N)N)NC(=O)[C@H](CCSC)NC(=O)[C@H](CCC(=O)O)NC(=O)[C@H](CCC(=O)O)NC(=O)[C@H](Cc1ccc(O)cc1)NC(=O)[C@@H](NC(=O)[C@H](CCCCN)NC(=O)[C@H](CCC(N)=O)NC(=O)[C@H](CC(C)C)NC(=O)[C@@H](NC(=O)[C@H](Cc1c[nH]c2ccccc12)NC(=O)[C@H](CCC(=O)O)NC(=O)[C@H](CCCCN)NC(=O)[C@@H](N)CC(=O)O)[C@@H](C)CC)[C@@H](C)CC)C(C)C)C(=O)N[C@@H](Cc1ccc(O)cc1)C(=O)N[C@@H](CCC(=O)O)C(=O)N[C@@H](Cc1ccccc1)C(=O)N[C@@H](CCSC)C(=O)N[C@@H](CCCCN)C(=O)N[C@@H](CCCCN)C(N)=O [SIH-15] (H-DKEWILQKIYEEMRLLDEL[dA]D[Aib]EASMRVSDEIYEFMKK-NH2) | 250 to 500 | – | 1.7 | 150000
